According to patent US20240246942A1, “KINASE INHIBITORS FOR THE TREATMENT OF NEURODEGENERATIVE DISEASES” (priority 2020, published 2024):

Columns and labels:
JNK1 = JNK1 (Homo sapiens, UniProt P45983); assay: JNK1 homogeneous time-resolved fluorescence enzyme inhibition assay; format: biochemical; conditions: mean of ≥2 experiments; read-out: Biochemical inhibition IC50 JNK1
Protocol: (§1) A 10-point titration of all compounds was carried out in 3-fold dilutions from 10 μM to 0.5 nM.

JNK2 = JNK2 (Homo sapiens, UniProt P45984); assay: JNK2 homogeneous time-resolved fluorescence enzyme inhibition assay; format: biochemical; conditions: mean of ≥2 experiments; read-out: Biochemical inhibition IC50 JNK2
Protocol: as §1

[1] = biological target: T1, panel of 374 wild-type kinases (Homo sapiens, UniProt Q02156); assay: biochemical; conditions: read-out: % Enzyme Activity (relative to DMSO controls), kinase PKCepsilon; 5 uM
T1 construct: purchased Reaction Biology Corporation

[2] = biological target: T2, panel of 374 wild-type kinases (Homo sapiens, UniProt Q9H792); assay: biochemical; conditions: read-out: % Enzyme Activity (relative to DMSO controls), kinase PEAK1; 5 uM
T2 construct: purchased Reaction Biology Corporation

[3] = biological target: T3, panel of 374 wild-type kinases (Homo sapiens, UniProt Q86SG6); assay: biochemical; conditions: read-out: % Enzyme Activity (relative to DMSO controls), NEK8; 5 uM
T3 construct: purchased Reaction Biology Corporation

[4] = biological target: T4, panel of 374 wild-type kinases (Homo sapiens, UniProt Q99640); assay: biochemical; conditions: read-out: % Enzyme Activity (relative to DMSO controls), kinase PKMYT1; 5 uM
T4 construct: purchased Reaction Biology Corporation

p38α = p38α (Homo sapiens, UniProt Q16539); assay: p38 enzyme inhibition assay; conditions: mean of ≥2 experiments; read-out: Biochemical inhibition IC50 p38α
JNK3α1 = JNK3α1 (Homo sapiens, UniProt P53779); format: biochemical; conditions: mean of ≥2 experiments; read-out: Biochemical inhibition IC50 JNK3
Protocol: as §1

[5] = Pharmacokinetics / brain exposure in mice; format: in vivo, C57Bl/6J mice
Protocol: Pharmacokinetics studies were conducted in C57Bl/6J mice. The compound was formulated in a generic formulation at 1 mg/mL (e.g. 10:40:4:46, DMSO:PEG 400: tween 80: PBS, v:v:v:v) or other specified formulations and dosed at 1 mg/kg intravenous into the femoral vein or 1-10 mg/kg by oral gavage, or […]. Blood was obtained at t=5 min, 15 min, 30 min, 1 hr, 2 hr, 4 hr, 6 hr, and 8 hr. Blood was collected by heart puncture into EDTA containing tubes and plasma was generated by standard centrifugation methods. Brains were collected following perfusion with ice-cold saline, and snap frozen in liquid N2. Both plasma and brains were stored at −80° C. until processing. All procedures and handling were according to standard operating procedures approved by […] at Scripps Florida and/or Ohio State University. In order to assess in vivo pharmacokinetic parameters an LC-MS/MS bioanalytical method was developed where 25 TI of plasma was treated with 125 TI of acetonitrile containing an internal standard in a Millipore Multscreen Slovinter 0.45 micron low binding PTFE hydrophilic filter plate (#MSRLN0450) and allowed to shake at room temperature for five minute. The plate was then centrifuged for 5 minutes at 4000 rpm in a tabletop centrifuge and the filtrate was collected in a polypropylene capture plate. The filtrate (10 TI) is injected using an Agilent 1200 HPLC equipped with a Thermo Betasil C18 HPLC column 5 T (50×2.1 mm) #70105-052130. Mobile Phase A was water with 0.1% formic acid. Mobile phase B was acetonitrile with 0.1% formic acid. […] An API Sciex 4000 equipped with a turbo ion spray source was used for all analytical measurement. MRM methods were developed in position ion mode. Peak areas of the analyte ion were measured against the peak areas of the internal standard. Data was fit using WinNonLin using an IV bolus model.

[6] = system: JNK3-dependent phosphorylation of APP at T668; assay: JNK3 inhibition assay in rat primary neuron cultures (Western blot, anisomycin activated); format: cell-based; conditions: even at a concentration as low as 10 nM; FIGS. 5A-5C
Protocol: Both hippocampal and cortical neurons were isolated from E18 rat embryos and cultured in NbActive 1 medium that contains B27 (Brainbits, LLC) plus penicillin/streptomycin (Life Technologies). At the 7th day in culture, cells were treated with different concentrations of inhibitors diluted in DMSO and 80 ng/ml Anisomycin for 30 min to activate the endogenous JNK3. At the end of incubation time, whole cell lysates were prepared in RIPA buffer containing 50 mM Tris (pH 8.0), 150 mM NaCl, 2 mM EDTA, 1% NP-40, 0.5% deoxycholate supplemented with 10 mM Na pyrophosphate, 1 mM sodium orthovanadate, 25 mM NaF, 10 μg/ml leupeptin, 10 μg/ml aprotinin, 1 mM β-glycerophosphate, and 2 mM PMSF. The lysates were subjected to Western blotting to detect whether inhibitors block JNK3-dependent phosphorylation of APP at T668 and c-jun at S73. Phospho-APP^T668, phosphor-c-jun^S73, APP, and c-jun antibodies were from Cell Signaling Technology.

[7] = biological target: T5, panel of 374 wild-type kinases (Homo sapiens, UniProt O43293); assay: biochemical; conditions: read-out: % Enzyme Activity (relative to DMSO controls), kinase ZIPK/DAPK3
T5 construct: purchased Reaction Biology Corporation

[8] = biological target: T6, panel of 374 wild-type kinases (Homo sapiens, UniProt P53779); assay: biochemical; conditions: read-out: % Enzyme Activity (relative to DMSO controls), JNK3; 10 uM
T6 construct: purchased Reaction Biology Corporation
T6 sequence (P53779 whole entry): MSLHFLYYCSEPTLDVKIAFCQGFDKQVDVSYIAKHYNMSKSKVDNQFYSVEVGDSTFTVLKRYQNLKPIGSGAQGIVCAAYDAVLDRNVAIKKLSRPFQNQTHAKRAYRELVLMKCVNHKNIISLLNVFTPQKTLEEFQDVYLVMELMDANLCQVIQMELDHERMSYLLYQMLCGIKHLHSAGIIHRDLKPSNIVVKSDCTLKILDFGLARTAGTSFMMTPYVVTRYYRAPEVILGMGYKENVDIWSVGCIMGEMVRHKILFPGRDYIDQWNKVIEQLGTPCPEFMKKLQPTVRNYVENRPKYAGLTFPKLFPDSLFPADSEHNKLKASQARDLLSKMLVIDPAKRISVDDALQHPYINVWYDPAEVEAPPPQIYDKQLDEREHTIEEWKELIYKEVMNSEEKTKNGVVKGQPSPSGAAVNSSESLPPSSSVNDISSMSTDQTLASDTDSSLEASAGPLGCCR

T4 sequence (Q99640 whole entry): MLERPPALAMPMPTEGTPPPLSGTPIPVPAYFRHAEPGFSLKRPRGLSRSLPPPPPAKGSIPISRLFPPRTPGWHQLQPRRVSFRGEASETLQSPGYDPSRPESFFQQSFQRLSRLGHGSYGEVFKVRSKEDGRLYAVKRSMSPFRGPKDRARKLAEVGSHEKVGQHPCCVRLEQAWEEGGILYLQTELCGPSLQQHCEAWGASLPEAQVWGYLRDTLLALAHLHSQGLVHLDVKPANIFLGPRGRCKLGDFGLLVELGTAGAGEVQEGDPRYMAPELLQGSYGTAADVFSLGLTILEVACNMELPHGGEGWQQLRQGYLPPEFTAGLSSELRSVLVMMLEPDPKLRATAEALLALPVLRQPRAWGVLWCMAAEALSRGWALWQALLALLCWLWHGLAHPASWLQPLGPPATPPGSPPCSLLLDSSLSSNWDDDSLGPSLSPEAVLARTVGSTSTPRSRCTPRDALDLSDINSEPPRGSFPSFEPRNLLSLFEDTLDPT
T5 sequence (O43293 whole entry): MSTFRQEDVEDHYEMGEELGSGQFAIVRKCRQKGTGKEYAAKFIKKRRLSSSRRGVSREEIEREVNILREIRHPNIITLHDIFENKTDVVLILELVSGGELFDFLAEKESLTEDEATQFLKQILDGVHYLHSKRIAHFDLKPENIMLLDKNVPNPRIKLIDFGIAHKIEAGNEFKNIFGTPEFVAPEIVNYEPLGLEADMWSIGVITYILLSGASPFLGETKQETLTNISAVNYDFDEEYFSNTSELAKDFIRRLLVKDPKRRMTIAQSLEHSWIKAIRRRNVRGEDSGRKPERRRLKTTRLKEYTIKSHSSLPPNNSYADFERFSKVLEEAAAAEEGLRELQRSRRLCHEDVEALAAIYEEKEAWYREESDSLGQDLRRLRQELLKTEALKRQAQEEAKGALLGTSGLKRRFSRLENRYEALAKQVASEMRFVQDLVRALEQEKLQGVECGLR
T1 sequence (Q02156 whole entry): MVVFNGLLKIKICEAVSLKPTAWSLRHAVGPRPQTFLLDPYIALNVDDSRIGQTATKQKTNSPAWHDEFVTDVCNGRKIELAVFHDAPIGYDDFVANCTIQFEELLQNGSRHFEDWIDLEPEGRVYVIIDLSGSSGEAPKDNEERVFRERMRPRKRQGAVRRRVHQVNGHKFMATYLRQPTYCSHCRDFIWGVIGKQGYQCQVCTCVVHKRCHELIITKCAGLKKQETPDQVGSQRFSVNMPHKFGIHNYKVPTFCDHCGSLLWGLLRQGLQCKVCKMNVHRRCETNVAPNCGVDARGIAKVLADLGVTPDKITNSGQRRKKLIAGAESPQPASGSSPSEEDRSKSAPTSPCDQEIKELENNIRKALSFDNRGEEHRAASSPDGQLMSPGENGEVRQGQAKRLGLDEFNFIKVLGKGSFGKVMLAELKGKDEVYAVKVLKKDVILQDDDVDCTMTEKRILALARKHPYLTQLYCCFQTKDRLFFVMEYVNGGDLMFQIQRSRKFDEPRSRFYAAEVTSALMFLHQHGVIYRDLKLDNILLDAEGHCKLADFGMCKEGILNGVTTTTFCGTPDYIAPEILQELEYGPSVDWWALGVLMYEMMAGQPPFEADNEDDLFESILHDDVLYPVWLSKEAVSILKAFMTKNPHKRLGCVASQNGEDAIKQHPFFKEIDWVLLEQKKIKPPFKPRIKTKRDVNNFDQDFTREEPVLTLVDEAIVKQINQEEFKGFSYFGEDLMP
Sequence of JNK3α1 (P53779 1-422 isoform P53779-2): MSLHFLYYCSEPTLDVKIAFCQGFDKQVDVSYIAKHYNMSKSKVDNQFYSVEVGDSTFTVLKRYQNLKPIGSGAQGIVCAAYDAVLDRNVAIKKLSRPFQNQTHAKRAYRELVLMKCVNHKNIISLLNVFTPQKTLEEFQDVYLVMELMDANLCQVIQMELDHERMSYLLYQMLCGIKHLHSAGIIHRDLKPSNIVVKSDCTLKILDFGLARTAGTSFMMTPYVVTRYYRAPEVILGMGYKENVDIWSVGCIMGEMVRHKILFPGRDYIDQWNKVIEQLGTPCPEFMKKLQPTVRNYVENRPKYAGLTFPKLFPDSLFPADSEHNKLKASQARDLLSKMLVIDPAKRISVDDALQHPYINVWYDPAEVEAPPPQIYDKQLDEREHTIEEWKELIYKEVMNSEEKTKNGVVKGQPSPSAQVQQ
Sequence of p38α (Q16539 whole entry): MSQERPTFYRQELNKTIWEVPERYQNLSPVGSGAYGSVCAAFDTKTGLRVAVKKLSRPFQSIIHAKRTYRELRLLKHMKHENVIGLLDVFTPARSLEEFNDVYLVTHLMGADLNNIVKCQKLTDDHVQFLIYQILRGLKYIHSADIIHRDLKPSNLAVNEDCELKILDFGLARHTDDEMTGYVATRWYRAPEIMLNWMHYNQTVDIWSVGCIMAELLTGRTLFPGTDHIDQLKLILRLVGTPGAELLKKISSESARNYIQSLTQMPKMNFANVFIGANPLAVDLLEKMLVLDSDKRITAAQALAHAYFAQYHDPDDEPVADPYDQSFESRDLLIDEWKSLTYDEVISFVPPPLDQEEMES
T2 sequence (Q9H792 whole entry): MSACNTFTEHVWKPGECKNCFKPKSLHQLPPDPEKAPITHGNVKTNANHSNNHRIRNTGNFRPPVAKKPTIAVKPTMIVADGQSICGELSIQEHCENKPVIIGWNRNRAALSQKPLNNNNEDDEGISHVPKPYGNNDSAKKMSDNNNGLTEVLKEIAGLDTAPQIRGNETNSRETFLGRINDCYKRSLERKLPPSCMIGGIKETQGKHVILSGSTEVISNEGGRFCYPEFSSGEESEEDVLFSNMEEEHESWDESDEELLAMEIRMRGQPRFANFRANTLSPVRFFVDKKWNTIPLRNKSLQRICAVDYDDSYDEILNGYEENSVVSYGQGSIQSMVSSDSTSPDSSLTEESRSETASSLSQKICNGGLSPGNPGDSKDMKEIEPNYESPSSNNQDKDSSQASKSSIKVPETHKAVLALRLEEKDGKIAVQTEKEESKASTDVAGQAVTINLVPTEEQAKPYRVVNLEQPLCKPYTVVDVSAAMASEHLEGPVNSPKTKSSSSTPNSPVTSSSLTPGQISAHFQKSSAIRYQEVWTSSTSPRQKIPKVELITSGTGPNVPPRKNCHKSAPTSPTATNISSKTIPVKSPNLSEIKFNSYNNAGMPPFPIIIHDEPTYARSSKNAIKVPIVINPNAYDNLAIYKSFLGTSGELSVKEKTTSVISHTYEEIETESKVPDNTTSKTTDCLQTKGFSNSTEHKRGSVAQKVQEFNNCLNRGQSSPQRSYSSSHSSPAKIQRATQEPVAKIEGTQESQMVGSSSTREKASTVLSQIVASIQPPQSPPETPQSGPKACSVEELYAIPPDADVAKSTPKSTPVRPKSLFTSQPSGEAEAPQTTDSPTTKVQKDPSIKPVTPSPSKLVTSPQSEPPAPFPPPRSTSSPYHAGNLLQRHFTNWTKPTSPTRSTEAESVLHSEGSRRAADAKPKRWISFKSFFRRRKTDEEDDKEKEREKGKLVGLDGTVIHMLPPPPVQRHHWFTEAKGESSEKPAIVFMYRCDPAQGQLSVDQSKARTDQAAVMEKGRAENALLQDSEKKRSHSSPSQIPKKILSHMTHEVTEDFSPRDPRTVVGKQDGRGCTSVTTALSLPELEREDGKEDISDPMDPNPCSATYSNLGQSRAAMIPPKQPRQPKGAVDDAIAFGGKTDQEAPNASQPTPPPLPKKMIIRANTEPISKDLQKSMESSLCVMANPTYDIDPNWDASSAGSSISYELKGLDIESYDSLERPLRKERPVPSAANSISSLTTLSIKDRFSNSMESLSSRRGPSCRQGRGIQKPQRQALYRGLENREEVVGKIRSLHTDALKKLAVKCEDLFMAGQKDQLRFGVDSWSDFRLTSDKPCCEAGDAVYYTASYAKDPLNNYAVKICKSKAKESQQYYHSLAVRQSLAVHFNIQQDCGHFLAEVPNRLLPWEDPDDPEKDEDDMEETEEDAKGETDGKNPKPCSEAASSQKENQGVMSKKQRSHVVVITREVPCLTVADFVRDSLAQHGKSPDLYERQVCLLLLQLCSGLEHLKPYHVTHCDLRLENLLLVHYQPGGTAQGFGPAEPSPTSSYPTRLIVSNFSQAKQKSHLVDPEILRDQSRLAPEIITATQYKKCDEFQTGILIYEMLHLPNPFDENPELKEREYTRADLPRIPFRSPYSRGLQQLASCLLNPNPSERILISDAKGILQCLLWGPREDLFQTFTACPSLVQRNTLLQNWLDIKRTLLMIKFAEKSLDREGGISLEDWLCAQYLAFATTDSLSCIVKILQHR

## O=C(Nc1cnn(-c2csc(C(=O)NC3COC3)c2)c1)Nc1ccccc1Cl [Compound 17, 4-(4-(3-(2-chlorophenyl)ureido)-1H-pyrazol-1-yl)-N-(oxetan-3-yl)thiophene-2-carboxamide]
JNK1
  IC50: 5.9 µM
JNK2
  IC50: 1360 nM
[1]
  remaining activity at 5 µM: 102%
[2]
  remaining activity at 5 µM: 91.4%
[3]
  remaining activity at 5 µM: 107%
[4]
  remaining activity at 5 µM: 87%
p38α
  IC50: > 20 µM
JNK3α1
  IC50: 35 nM
[5]; po dosing
  brain penetration capability: brain penetrant
  oral bioavailability: has oral bioavailability
[5]; po, 10 mg/kg
  Brain Concentration: 1.08 µM
  Plasma Concentration: 0.96 µM
[6]
  inhibition of phosphorylation of residue T668 of APP: significantly inhibited

## Cc1sc(C(=O)NC2COC2)cc1-n1cc(NC(=O)Nc2c(F)cccc2Cl)cn1 [Compound 27, 4-(4-(3-(2-chloro-6-fluorophenyl)ureido)-1H-pyrazol-1-yl)-5-methyl-N-(oxetan-3-yl)thiophene-2-carboxamide]
[7]; 10 uM
  remaining activity at 10 µM: 101%
[8]
  remaining activity at 10 µM: 10.5%

## O=C(Nc1cnn(-c2csc(C(=O)NC3COC3)c2)c1)Nc1c(F)cccc1Cl [Compound 25, 4-(4-(3-(2-chloro-6-fluorophenyl)ureido)-1H-pyrazol-1-yl)-N-(oxetan-3-yl)thiophene-2-carboxamide]
[1]
  remaining activity at 5 µM: 94.2%
[7]; 5 uM
  remaining activity at 5 µM: 108%
[4]
  remaining activity at 5 µM: 89.6%
